The values below come from patent US8795650B2, “Derivation of unlimited quantities of neutrophils or monocyte/dendritic cells” (The Regents of the University of California, priority 2004, dated 2014).

The experiment deals with SCF Hoxb8-ER progenitors. The conditions noted are these: SCF medium supplemented with the cytokine. The text has this: Cells were photographed 6 days after differentiation was initiated by removal of estradiol. […] Distribution of mature cell types is indicated below each column, as measured at the end of the 6 day differentiation.

Regarding Erythropoietin, the “impact on neutrophil-committed differentiation” value is on record as “no impact”.

Consider GM-CSF, for which, for the setting “6 day differentiation”, the “progenitors maturing as macrophages” value was determined as 16%. The same substance gave an expansion during differentiation (estradiol removed) of 830 fold.
